Results: PubChem BioAssay (NCI)
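These data come from cells grown in 96-well plates and exposed to compound for 48 hours at five concentrations. TGI denotes the concentration required for complete inhibition of growth.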

Key:
Experiment in all cases: growth of human tumour cells (NCI), 48 h
SF-295 CNS = system: SF-295 CNS
MALME-3M melanoma = system: MALME-3M melanoma
SK-MEL-28 melanoma = system: SK-MEL-28 melanoma
ACHN renal = system: ACHN renal
UACC-257 melanoma = system: UACC-257 melanoma
EKVX NSCLC = system: EKVX NSCLC
HOP-62 NSCLC = system: HOP-62 NSCLC
SNB-19 CNS = system: SNB-19 CNS
SR leukemia = system: SR leukemia
PC-3 prostate = system: PC-3 prostate
MDA-MB-435 = system: MDA-MB-435
RXF 393 renal = system: RXF 393 renal
A498 renal = system: A498 renal
NCI-H522 lung = system: NCI-H522 lung
NCI-H226 lung = system: NCI-H226 lung
CCRF-CEM leukemia = system: CCRF-CEM leukemia
COLO 205 colon = system: COLO 205 colon
HCT-116 colon = system: HCT-116 colon
IGROV1 ovarian = system: IGROV1 ovarian
M14 melanoma = system: M14 melanoma
HOP-92 NSCLC = system: HOP-92 NSCLC
SW-620 colon = system: SW-620 colon
OVCAR-5 ovarian = system: OVCAR-5 ovarian
MCF7 breast = system: MCF7 breast
SK-MEL-5 melanoma = system: SK-MEL-5 melanoma
U251 CNS = system: U251 CNS
SK-OV-3 ovarian = system: SK-OV-3 ovarian
NCI-H23 lung = system: NCI-H23 lung
T-47D breast = system: T-47D breast
BT-549 breast = system: BT-549 breast
DU-145 prostate = system: DU-145 prostate
OVCAR-8 ovarian = system: OVCAR-8 ovarian
UACC-62 melanoma = system: UACC-62 melanoma
UO-31 renal = system: UO-31 renal
A549 NSCLC = system: A549 NSCLC
CAKI-1 renal = system: CAKI-1 renal
SN12C renal = system: SN12C renal
HL-60(TB) leukemia = system: HL-60(TB) leukemia
RPMI-8226 leukemia = system: RPMI-8226 leukemia
HS 578T breast = system: HS 578T breast
786-0 renal = system: 786-0 renal
K-562 leukemia = system: K-562 leukemia
OVCAR-3 ovarian = system: OVCAR-3 ovarian
NCI/ADR-RES ovarian = system: NCI/ADR-RES ovarian
SNB-75 CNS = system: SNB-75 CNS
HT29 colon = system: HT29 colon
SK-MEL-2 melanoma = system: SK-MEL-2 melanoma
HCT-15 colon = system: HCT-15 colon
MDA-MB-231 breast = system: MDA-MB-231 breast
KM12 colon = system: KM12 colon
SF-268 CNS = system: SF-268 CNS
LOX IMVI melanoma = system: LOX IMVI melanoma
SF-539 CNS = system: SF-539 CNS
NCI-H460 lung = system: NCI-H460 lung
MDA-N = system: MDA-N
HCC-2998 colon = system: HCC-2998 colon
MOLT-4 leukemia = system: MOLT-4 leukemia
OVCAR-4 ovarian = system: OVCAR-4 ovarian
TK-10 renal = system: TK-10 renal

CC(=O)Oc1c(C)c2c(O)c3c1C1=C(OCOC1=C(C)C3=O)/C(C)=C\C(C)(O)C(O)C(C)C(O)C1C(=O)OC(C(C)C1O)C(C)(O)/C=C/C=C(C)C(=O)N2 (stereo not given)
TGI (SF-295 CNS): > 100 µM
TGI (MALME-3M melanoma): > 100 µM
TGI (SK-MEL-28 melanoma): > 100 µM
TGI (ACHN renal): > 100 µM
TGI (UACC-257 melanoma): > 100 µM
TGI (EKVX NSCLC): > 100 µM
TGI (HOP-62 NSCLC): > 100 µM
TGI (SNB-19 CNS): > 100 µM
TGI (SR leukemia): 83.3 µM
TGI (PC-3 prostate): > 100 µM
TGI (MDA-MB-435): > 100 µM
TGI (RXF 393 renal): 70.4 µM
TGI (A498 renal): > 100 µM
TGI (NCI-H522 lung): > 100 µM
TGI (NCI-H226 lung): 75.7 µM
TGI (CCRF-CEM leukemia): 61.4 µM
TGI (COLO 205 colon): > 100 µM
TGI (HCT-116 colon): > 100 µM
TGI (IGROV1 ovarian): 52.7 µM
TGI (M14 melanoma): > 100 µM
TGI (HOP-92 NSCLC): > 100 µM
TGI (SW-620 colon): > 100 µM
TGI (OVCAR-5 ovarian): 88.5 µM
TGI (MCF7 breast): > 100 µM
TGI (SK-MEL-5 melanoma): > 100 µM
TGI (U251 CNS): > 100 µM
TGI (SK-OV-3 ovarian): > 100 µM
TGI (NCI-H23 lung): > 100 µM
TGI (T-47D breast): > 100 µM
TGI (BT-549 breast): > 100 µM
TGI (DU-145 prostate): > 100 µM
TGI (OVCAR-8 ovarian): > 100 µM
TGI (UACC-62 melanoma): > 100 µM
TGI (UO-31 renal): 46.5 µM
TGI (A549 NSCLC): > 100 µM
TGI (CAKI-1 renal): 64.5 µM
TGI (SN12C renal): > 100 µM
TGI (HL-60(TB) leukemia): 7.3 µM
TGI (RPMI-8226 leukemia): > 100 µM
TGI (HS 578T breast): > 100 µM
TGI (786-0 renal): > 100 µM
TGI (K-562 leukemia): > 100 µM
TGI (OVCAR-3 ovarian): > 100 µM
TGI (NCI/ADR-RES ovarian): > 100 µM
TGI (SNB-75 CNS): > 100 µM
TGI (HT29 colon): > 100 µM
TGI (SK-MEL-2 melanoma): > 100 µM
TGI (HCT-15 colon): > 100 µM
TGI (MDA-MB-231 breast): > 100 µM
TGI (KM12 colon): > 100 µM
TGI (SF-268 CNS): > 100 µM
TGI (LOX IMVI melanoma): > 100 µM
TGI (SF-539 CNS): 46.8 µM
TGI (NCI-H460 lung): > 100 µM
TGI (MDA-N): > 100 µM
TGI (HCC-2998 colon): > 100 µM
TGI (MOLT-4 leukemia): > 100 µM

Cc1cc(NS(=O)(=O)c2ccc(NC(=O)c3ccc4[nH]c5ccccc5c(=O)c4c3)cc2)no1
TGI (SF-295 CNS): > 100 µM
TGI (MALME-3M melanoma): > 100 µM
TGI (SK-MEL-28 melanoma): > 100 µM
TGI (ACHN renal): > 100 µM
TGI (UACC-257 melanoma): > 100 µM
TGI (EKVX NSCLC): > 100 µM
TGI (HOP-62 NSCLC): > 100 µM
TGI (SNB-19 CNS): > 100 µM
TGI (SR leukemia): > 100 µM
TGI (PC-3 prostate): > 100 µM
TGI (MDA-MB-435): > 100 µM
TGI (RXF 393 renal): 90.7 µM
TGI (NCI-H522 lung): > 100 µM
TGI (NCI-H226 lung): > 100 µM
TGI (CCRF-CEM leukemia): > 100 µM
TGI (COLO 205 colon): > 100 µM
TGI (HCT-116 colon): > 100 µM
TGI (IGROV1 ovarian): > 100 µM
TGI (M14 melanoma): > 100 µM
TGI (HOP-92 NSCLC): > 100 µM
TGI (SW-620 colon): > 100 µM
TGI (OVCAR-5 ovarian): > 100 µM
TGI (MCF7 breast): > 100 µM
TGI (SK-MEL-5 melanoma): > 100 µM
TGI (U251 CNS): > 100 µM
TGI (SK-OV-3 ovarian): > 100 µM
TGI (NCI-H23 lung): > 100 µM
TGI (T-47D breast): > 100 µM
TGI (BT-549 breast): > 100 µM
TGI (DU-145 prostate): > 100 µM
TGI (OVCAR-8 ovarian): > 100 µM
TGI (UACC-62 melanoma): > 100 µM
TGI (UO-31 renal): > 100 µM
TGI (A549 NSCLC): > 100 µM
TGI (CAKI-1 renal): > 100 µM
TGI (SN12C renal): > 100 µM
TGI (HL-60(TB) leukemia): > 100 µM
TGI (RPMI-8226 leukemia): > 100 µM
TGI (HS 578T breast): > 100 µM
TGI (OVCAR-4 ovarian): > 100 µM
TGI (786-0 renal): > 100 µM
TGI (K-562 leukemia): > 100 µM
TGI (OVCAR-3 ovarian): > 100 µM
TGI (NCI/ADR-RES ovarian): > 100 µM
TGI (SNB-75 CNS): > 100 µM
TGI (HT29 colon): > 100 µM
TGI (SK-MEL-2 melanoma): > 100 µM
TGI (HCT-15 colon): > 100 µM
TGI (MDA-MB-231 breast): > 100 µM
TGI (KM12 colon): > 100 µM
TGI (SF-268 CNS): > 100 µM
TGI (LOX IMVI melanoma): > 100 µM
TGI (SF-539 CNS): > 100 µM
TGI (NCI-H460 lung): > 100 µM
TGI (MDA-N): > 100 µM
TGI (HCC-2998 colon): > 100 µM
TGI (MOLT-4 leukemia): > 100 µM
TGI (TK-10 renal): > 100 µM
